Values of other authors in patent US20150079136A1, “CONTROLLED RELEASE PHARMACEUTICAL FORMULATIONS OF DIRECT THROMBIN INHIBITORS” (RUBICON RESEARCH PRIVATE LIMITED, priority 2012, published 2015).
Where a name gives a salt, the structure may show the parent alone. Read-outs that look alike come from different tables or passages of the source.

Legend:
[1] = not given; remark: listed apart in the source
[2] = not given; remark: listed apart in the source
P-glycoprotein = P-glycoprotein (Homo sapiens, UniProt P08183)
Sequence of P-glycoprotein (P08183 whole entry): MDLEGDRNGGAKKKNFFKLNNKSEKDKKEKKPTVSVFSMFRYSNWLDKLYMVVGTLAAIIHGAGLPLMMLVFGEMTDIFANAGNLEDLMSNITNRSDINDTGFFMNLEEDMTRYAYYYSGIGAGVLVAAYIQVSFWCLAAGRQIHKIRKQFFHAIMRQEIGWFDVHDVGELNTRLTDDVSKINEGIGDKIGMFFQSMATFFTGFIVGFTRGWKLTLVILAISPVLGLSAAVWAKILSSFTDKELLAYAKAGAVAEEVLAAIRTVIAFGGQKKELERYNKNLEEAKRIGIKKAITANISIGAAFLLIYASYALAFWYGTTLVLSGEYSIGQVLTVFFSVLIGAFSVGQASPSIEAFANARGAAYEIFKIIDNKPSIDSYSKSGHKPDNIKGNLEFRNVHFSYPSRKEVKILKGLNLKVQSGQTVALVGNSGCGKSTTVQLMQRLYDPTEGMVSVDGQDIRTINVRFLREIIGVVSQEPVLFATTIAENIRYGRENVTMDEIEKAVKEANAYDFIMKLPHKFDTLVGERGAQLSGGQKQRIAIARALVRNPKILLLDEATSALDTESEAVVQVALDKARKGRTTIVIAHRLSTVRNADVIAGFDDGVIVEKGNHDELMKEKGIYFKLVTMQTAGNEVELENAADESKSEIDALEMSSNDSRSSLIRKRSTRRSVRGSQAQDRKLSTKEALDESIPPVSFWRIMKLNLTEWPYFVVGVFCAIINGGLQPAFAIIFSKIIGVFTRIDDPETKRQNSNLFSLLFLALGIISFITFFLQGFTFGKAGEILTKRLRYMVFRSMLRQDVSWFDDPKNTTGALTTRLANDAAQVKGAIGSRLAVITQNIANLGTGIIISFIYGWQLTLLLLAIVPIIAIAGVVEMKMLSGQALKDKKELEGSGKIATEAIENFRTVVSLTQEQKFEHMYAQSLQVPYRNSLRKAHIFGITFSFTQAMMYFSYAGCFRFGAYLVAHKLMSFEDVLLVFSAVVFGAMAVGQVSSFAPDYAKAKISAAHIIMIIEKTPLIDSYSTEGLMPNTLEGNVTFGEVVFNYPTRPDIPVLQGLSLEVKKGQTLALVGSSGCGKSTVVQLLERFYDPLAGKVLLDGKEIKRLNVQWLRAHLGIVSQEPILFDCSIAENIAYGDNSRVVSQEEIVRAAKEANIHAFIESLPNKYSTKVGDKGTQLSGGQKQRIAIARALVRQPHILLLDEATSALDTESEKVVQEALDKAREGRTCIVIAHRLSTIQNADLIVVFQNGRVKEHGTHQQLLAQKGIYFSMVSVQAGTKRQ

| SMILES | elimination half life (multiple dosing) | elimination half life (single dosing) [h] | sensitivity to light irradiation ([1]; light irradiation) | hygroscopicity ([1]; powder) | degradation in the presence of moisture ([1]; presence of moisture) | stability in the solid state ([1]; solid state) | solubility in acidic media ([2]; acidic media) | solubility in neutral and basic media ([2]; neutral and basic media) | BCS class ([2]; poor aqueous solubility but good membrane permeability) | effect of high-fat meal on the bioavailability of dabigatran (coadministration with a high-fat meal) | absolute bioavailability of dabigatran (following oral administration of dabigatran etexilate) | increase in oral bioavailability (marketed formulation, pellets taken without the capsule shell vs intact capsule) [%] | substrate of efflux transporter P-glycoprotein (P-glycoprotein) |
| --- | --- | --- | --- | --- | --- | --- | --- | --- | --- | --- | --- | --- | --- |
| CCCCCCOC(=O)NC(=N)c1ccc(NCc2nc3cc(C(=O)N(CCC(=O)OCC)c4ccccn4)ccc3n2C)cc1 [DEM, dabigatran etexilate mesylate] | about 8 hours | 12 to 17 | not sensitive | non-hygroscopic | predominantly undergoes degradation by hydrolytic pathways | stable | rather high solubility | very poor solubility | Class II | – | – | – | – |
| CCCCCCOC(=O)NC(=N)c1ccc(NCc2nc3cc(C(=O)N(CCC(=O)OCC)c4ccccn4)ccc3n2C)cc1 [dabigatran etexilate, 1-methyl-2-[N-[4-(N-n-hexyloxycarbonylamidino)phenyl]aminomethyl]benzimidazol-5-ylcarboxylic acid-N-(2-pyridyl)-N-(2 ethoxycarbonylethyl)amides] | – | – | – | – | – | – | – | – | – | no effect | 3-7% | 75 | substrate |
